# In ChEMBL document CHEMBL1153565, “Physicochemical properties and membrane interactions of anti-apoptotic derivatives 2-(4-fluorophenyl)-3-(pyridin-4-yl)imidazo[1,2-a]pyridine depending on the hydroxyalkylamino side chain length and conformation: an NMR and ESR study” (Eur J Med Chem, 2009):
# Columns and labels:
# [1] = Solubility of compound in water; type: physicochemical; conditions: buffer
# [2] = Partition coefficient, log P of the compound; type: physicochemical; conditions: octanol/water
# [3] = system: THP-1; assay: Membrane penetration of compound in human THP1 cells assessed as membrane binding; type: ADME, cell-based
solubility [1],logP [2],Activity [3],SMILES
Insoluble,2.3,Not Active,OCCCCNc1ccc2nc(-c3ccc(F)cc3)c(-c3ccncc3)n2c1
Insoluble,1.75,Not Active,OCCNc1ccc2nc(-c3ccc(F)cc3)c(-c3ccncc3)n2c1
Soluble,3.2,Active,OCCCCCCNc1ccc2nc(-c3ccc(F)cc3)c(-c3ccncc3)n2c1
